Experimental data as given in PubChem BioAssay (NCI).
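Five concentrations, 48 hours, 96-well plates. The concentration for full growth arrest is given as TGI.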

How the values were obtained:
Assay in all cases: NCI-60 cell line screen, 48 h
[1] = test system: HCT-15 colon
[2] = test system: HS 578T breast
[3] = test system: ACHN renal
[4] = test system: MALME-3M melanoma
[5] = test system: HOP-62 NSCLC
[6] = test system: OVCAR-8 ovarian
[7] = test system: TK-10 renal
[8] = test system: M14 melanoma
[9] = test system: SNB-75 CNS
[10] = test system: HCT-116 colon
[11] = test system: U251 CNS
[12] = test system: LOX IMVI melanoma
[13] = test system: NCI/ADR-RES ovarian
[14] = test system: SN12C renal
[15] = test system: A549 NSCLC
[16] = test system: SR leukemia
[17] = test system: MDA-MB-435
[18] = test system: DU-145 prostate
[19] = test system: K-562 leukemia
[20] = test system: OVCAR-3 ovarian
[21] = test system: NCI-H522 lung
[22] = test system: SK-MEL-28 melanoma
[23] = test system: RXF 393 renal
[24] = test system: KM12 colon
[25] = test system: SNB-19 CNS
[26] = test system: SF-539 CNS
[27] = test system: NCI-H460 lung
[28] = test system: T-47D breast
[29] = test system: HT29 colon
[30] = test system: EKVX NSCLC
[31] = test system: SF-295 CNS
[32] = test system: HL-60(TB) leukemia
[33] = test system: NCI-H226 lung
[34] = test system: MCF7 breast
[35] = test system: UACC-62 melanoma
[36] = test system: IGROV1 ovarian
[37] = test system: SK-MEL-2 melanoma
[38] = test system: MDA-MB-231 breast
[39] = test system: HOP-92 NSCLC
[40] = test system: SW-620 colon
[41] = test system: OVCAR-4 ovarian
[42] = test system: SF-268 CNS
[43] = test system: OVCAR-5 ovarian
[44] = test system: HCC-2998 colon
[45] = test system: CAKI-1 renal
[46] = test system: UO-31 renal
[47] = test system: PC-3 prostate
[48] = test system: CCRF-CEM leukemia
[49] = test system: SK-MEL-5 melanoma
[50] = test system: MDA-N
[51] = test system: NCI-H23 lung
[52] = test system: SK-OV-3 ovarian
[53] = test system: COLO 205 colon
[54] = test system: A498 renal
[55] = test system: UACC-257 melanoma
[56] = test system: MOLT-4 leukemia
[57] = test system: 786-0 renal
[58] = test system: BT-549 breast
[59] = test system: RPMI-8226 leukemia

Measured: TGI

C[n+]1cccc2c(=O)c3ccccc3oc21
> 100 µM: [1] | [2] | [3] | [4] | [5] | [6] | [7] | [8] | [9] | [10] | [11] | [12] | [13] | [14] | [15] | [16] | [17] | [18] | [19] | [20] | [21] | [22] | [23] | [24] | [25] | [26] | [27] | [28] | [29] | [30] | [31] | [32] | [33] | [34] | [35] | [36] | [37] | [38] | [39] | [40] | [41] | [42] | [43] | [44] | [45] | [46] | [47] | [48] | [49] | [50] | [51] | [52] | [53] | [54]

COC(C(=O)NN)c1ccccc1 (centres undefined)
> 100 µM: [1] | [2] | [3] | [4] | [5] | [6] | [7] | [8] | [9] | [11] | [13] | [14] | [15] | [16] | [17] | [18] | [19] | [20] | [55] | [21] | [22] | [23] | [24] | [25] | [26] | [27] | [56] | [29] | [30] | [31] | [33] | [34] | [35] | [36] | [37] | [39] | [40] | [57] | [42] | [43] | [44] | [58] | [45] | [59] | [46] | [47] | [49] | [50] | [51] | [52]

O=C1CCCCC/C1=C\c1ccc([N+](=O)[O-])cc1
54.6 µM: [57]
70.5 µM: [48]
74.4 µM: [7]
34.5 µM: [36]
59.9 µM: [45]
73.2 µM: [20]
33.1 µM: [44]
37.6 µM: [24]
57.6 µM: [10]
43.7 µM: [49]
62.5 µM: [26]
59.6 µM: [14]
97 µM: [59]
82 µM: [42]
54.9 µM: [55]
37.9 µM: [38]
77.7 µM: [29]
> 100 µM: [4] | [5] | [6] | [8] | [9] | [11] | [13] | [15] | [17] | [18] | [19] | [22] | [23] | [25] | [28] | [56] | [30] | [31] | [34] | [35] | [37] | [40] | [43] | [47] | [50] | [52] | [54]
94.4 µM: [32]
92.9 µM: [16]
55 µM: [3]
39.4 µM: [27]
54.3 µM: [58]
49.2 µM: [53]
79.7 µM: [46]

COC(OC)[C@@H]1OC[C@H](n2cnc3c(N)ncnc32)[C@H]1O
> 100 µM: [1] | [2] | [3] | [5] | [7] | [8] | [9] | [10] | [11] | [12] | [13] | [14] | [15] | [16] | [17] | [18] | [19] | [20] | [55] | [22] | [23] | [24] | [25] | [26] | [27] | [28] | [56] | [29] | [30] | [31] | [33] | [35] | [36] | [37] | [38] | [39] | [40] | [41] | [57] | [42] | [43] | [44] | [58] | [45] | [59] | [46] | [47] | [48] | [49] | [50] | [51] | [52] | [53] | [54]
